Laboratory results reported in patent US6809112B2, “Method of treating sexual disturbances” (priority 1999, dated 2004).

Legend:
Type in all cases: in vivo, human
[1] = tested on: patient with Hypoactive Sexual Desire Disorder; experiment: Treatment of Hypoactive Sexual Desire Disorder in a patient (Examples A, I); details: 1 mg/dose 0.5 hr before sexual activity, examined after one month, patient report
Text: A 44 kg, patient is referred by their psychologist for evaluation for and medical treatment of hypoactive sexual desire disorder. The patient recently began to co-habitate with a person. They consulted a clinical psychologist because of distress over frequent arguments with their partner. These arguments concern their frustration that their partner is unwilling to marry them and the partner's accusations that they are sexually unresponsive and “boring in bed.” The patient reports that although they desire to continue the relationship, they have little or no interest in sexual activity with this partner. The partner initiates all sexual activity in the relationship and they comply so that the relationship will continue. They state that their partner desires sexual intercourse about once per day. Occasionally, the couple's frequency of sexual intercourse is as much as twice per day. […] They currently take no prescription drugs other than low dose birth control pills. […] The patient is diagnosed as having Hypoactive Sexual Desire Disorder of acquired onset due to situational factor (Diagnostic and Statistical Manual of Mental Disorders, Fourth Edition, 1994). (5R)-(methylamino)-5,6-dihydro-4H-imidazo[4,5,1-ij]quinolin-2(1H)-one (Z)-2-butenedioate (1:1) is prescribed at 1 mg/dose to be taken 0.5 hr before the patient intends to engage in sexual activity. The patient is instructed that they may use the drug on a daily basis, if they and their partner desire sexual activity at this frequency. They are also instructed that on occasions they may use the drug twice in a single day if this is the intended frequency of intercourse. The patient is examined after one month. They report that they use the drug once, and occasionally twice, per day. […] They also report that they and their partner argue less frequently and that their partner no longer accuses them of being disinterested in sexual relations. The patient is instructed to continue using the drug.

[2] = tested on: patient with Female Sexual Arousal Disorder; experiment: Treatment of Female Sexual Arousal Disorder in a patient (Examples B, J); details: 3 mg/dose 0.5-1 hr before sexual activity; examined after one month; patient report
Text: A 64 kg, patient is complaining of vaginal dryness and mild discomfort during sexual intercourse. The patient recently began a relationship with a person. Their partner complained of their vaginal dryness and poor vaginal expansion during sexual intercourse. Their partner has made several comments about this during the previous two months and the patient is concerned that their partner is dissatisfied with their lack of sexual responsiveness and may end the relationship. The patient reports that they desire to continue the relationship. The patient has had several previous sexual relationships. They report that vaginal dryness and some discomfort with vaginal intercourse has occurred during their past sexual relationships. […] They find their current partner attractive and sexual desirable. […] During these episodes they usually have an orgasm. Lubrication is not a problem when they masturbate. […] They currently take no prescription drugs other than low dose birth control pills. […] The patient is diagnosed as having Female Sexual Arousal Disorder that is situational due to psychological factors (Diagnostic and Statistical Manual of Mental Disorders, Fourth Edition, 1994). (5R)-(methylamino)-5,6-dihydro-4H-imidazo[4,5,1-ij]quinolin-2(1H)-one (Z)-2-butenedioate (1:1) is prescribed at 3 mg/dose to be taken 0.5-1 hr before the patient intends to engage in sexual activity. The patient is instructed that they may use the drug on a daily basis, if this is the intended frequency of sexual activity. The patient is examined after one month. They report that they use the drug prior to intercourse. […] The patient is instructed to continue using the drug.

[3] = tested on: patient with Female Orgasmic Disorder; experiment: Treatment of Female Orgasmic Disorder (Examples D, L); details: 1 mg/dose about 0.5 hr before sexual activity; examined after two months; patient report
Text: A 50 kg, patient who married three months before presenting for treatment. […] They were not sexually active prior to marriage. They report that their spouse had multiple premarital partners and that they report all their past partners had orgasms. The patient is upset by their inability to have orgasms and feels they are an poor spouse. On questioning they report that they are “too fat” although their weight is appropriate for their height. […] They currently take no prescription drugs other than low dose birth control pills. […] The patient is diagnosed as having Female Orgasmic Disorder that is situational due to psychological factors (Diagnostic and Statistical Manual of Mental Disorders, Fourth Edition, 1994). (5R)-(methylamino)-5,6-dihydro-4H-imidazo[4,5,1-ij]quinolin-2(1H)-one (Z)-2-butenedioate (1:1) is prescribed at 1 mg/dose to be taken about 0.5 hr before the patient intends to engage in sexual activity. The patient is instructed that they may use the drug on a daily basis, if this is the intended frequency of sexual activity. The patient is examined after two months. They report that they use the drug prior to intercourse. […] It is recommended that the patient continue to use the drug for an additional six months, then stop taking the drug for a period of two weeks to determine whether they might now be able to have orgasms in the absence of drug therapy.

[4] = tested on: patient with Male Orgasmic Disorder; experiment: Treatment of Male Orgasmic Disorder (Examples E, M); details: 3 mg/dose 0.5-1 hr before sexual activity; examined after one month; patient report
Text: A 80 kg, person has been married for 15 years. They present complaining that they have begun to have difficulty achieving an orgasm during vaginal intercourse with their spouse. On most occasions they are unable to ejaculate during sexual intercourse. Infrequently, they are able to ejaculate during sexual, but only after very prolonged vaginal intercourse. […] Their further reports that their spouse finds the prolonged intercourse that they require to ejaculate uncomfortable and has begun avoiding sexual relations. They report that they ejaculate normally when they masturbate. […] They currently take no prescription drugs. […] The patient is diagnosed as having Male Orgasmic Disorder that is acquired and situational due to psychological factors (Diagnostic and Statistical Manual of Mental Disorders, Fourth Edition, 1994). (5R)-(methylamino) -5,6-dihydro-4H-imidazo[4,5,1-ij]quinolin-2(1H)-one (Z)-2-butenedioate (1:1) is prescribed at 3 mg/dose to be taken 0.5-1 hr before the patient intends to engage in sexual activity. The patient is instructed that they may use the drug on a daily basis, if this is the intended frequency of sexual activity. The patient is examined after one month. […] The patient is instructed to continue using the drug.

Compound | treatment effect (sexual relationship) [1] | treatment effect (sexual relationship) [2] | treatment effect (sexual relationship) [3] | treatment effect (quality of sexual relationship) [4] | frequency of sexual fantasies ([1]; once, occasionally twice, per day) | initiation of sexual activity [1] | pain during initiation of vaginal penetration [2] | vaginal dryness [2] | orgasm during sexual intercourse [3] | ejaculation during vaginal intercourse [4]
CN[C@@H]1Cc2cccc3[nH]c(=S)n(c23)C1 [(5R)-5-(Methylamino)-5,6-dihydro-4H-imidazo[4,5,1-ij]quinoline-2(1H)-thione] | same positive treatment effect | same positive treatment effect | same positive treatment effect | same positive treatment effect | – | – | – | – | – | –
CN[C@@H]1Cc2cccc3[nH]c(=O)n(c23)C1.O=C(O)/C=C\C(=O)O [(5R)-(methylamino)-5,6-dihydro-4H-imidazo[4,5,1-ij]quinolin-2(1H)-one (Z)-2-butenedioate (1:1)] | enjoys an improved sexual relationship with their partner | enjoys an improved sexual relationship with their partner | enjoys an improved sexual relationship with their partner | markedly improved | 3-4 occasions per week | occasionally initiates sexual activity with their partner | no longer has pain | no longer a problem | has an orgasm during sexual intercourse on most occasions | ejaculates during vaginal intercourse on all occasions
